# In ChEMBL document CHEMBL3120130, “Benzenesulfonamide bearing 1,2,4-triazole scaffolds as potent inhibitors of tumor associated carbonic anhydrase isoforms hCA IX and hCA XII” (Bioorg Med Chem, 2014):
# Legend:
# Carbonic anhydrase 9 = Carbonic anhydrase 9 (Homo sapiens, UniProt Q16790); assay: Inhibition of human transmembrane carbonic anhydrase 9 by stopped flow CO2 hydration assay
# Carbonic anhydrase 1 = Carbonic anhydrase 1 (Homo sapiens, UniProt P00915); assay: Inhibition of human cytosolic carbonic anhydrase 1 by stopped flow CO2 hydration assay
# Carbonic anhydrase 1, sequence (P00915 whole entry): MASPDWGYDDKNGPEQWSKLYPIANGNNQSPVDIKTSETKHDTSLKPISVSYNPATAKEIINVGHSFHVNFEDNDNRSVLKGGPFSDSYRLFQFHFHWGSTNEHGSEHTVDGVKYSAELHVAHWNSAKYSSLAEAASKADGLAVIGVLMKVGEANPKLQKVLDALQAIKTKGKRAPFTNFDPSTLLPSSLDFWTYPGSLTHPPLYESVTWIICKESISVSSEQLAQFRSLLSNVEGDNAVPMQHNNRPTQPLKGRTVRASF
Ki (Carbonic anhydrase 9) [nM],Ki (Carbonic anhydrase 1) [nM],Compound
104,–,NS(=O)(=O)c1ccc(-c2nnc3sc(-c4ccc(Br)cc4)nn23)cc1
3.7,–,NS(=O)(=O)c1ccc(-c2nnc3n2N=C(c2ccc(Br)cc2)CS3)cc1
356,> 10000,Cc1ccc(-c2nn3c(-c4ccc(S(N)(=O)=O)cc4)nnc3s2)cc1
64,> 10000,NS(=O)(=O)c1ccc(-c2nnc3sc(-c4ccc(F)cc4)nn23)cc1
115,–,NS(=O)(=O)c1ccc(-c2nnc3n2N=C(c2ccc([N+](=O)[O-])cc2)CS3)cc1
21,–,NS(=O)(=O)c1ccc(-c2nnc3n2N=C(c2ccccc2)CS3)cc1
7.6,–,NS(=O)(=O)c1ccc(-n2c(-c3ccc(Br)cc3)n[nH]c2=S)cc1
76,–,NS(=O)(=O)c1ccc(-c2nnc3n2N=C(c2ccc(Cl)cc2)CS3)cc1
431,> 10000,COc1ccc(-c2nn3c(-c4ccc(S(N)(=O)=O)cc4)nnc3s2)cc1

# Continued, molecule first:
Compound,Ki (Carbonic anhydrase 9) [nM],Ki (Carbonic anhydrase 1) [nM]
NS(=O)(=O)c1ccc(-c2nnc3sc(-c4ccc([N+](=O)[O-])cc4)nn23)cc1,41,> 10000
NS(=O)(=O)c1ccc(-n2c(-c3ccc(F)cc3)n[nH]c2=S)cc1,2.8,–
Cc1ccc(C2=Nn3c(nnc3-c3ccc(S(N)(=O)=O)cc3)SC2)cc1,13,–
Cc1ccc(-c2n[nH]c(=S)n2-c2ccc(S(N)(=O)=O)cc2)cc1,16,–
NS(=O)(=O)c1ccc(-n2c(-c3ccc(Cl)cc3)n[nH]c2=S)cc1,5.7,–
NS(=O)(=O)c1ccc(-c2n[nH]c(=S)n2-c2ccc(S(N)(=O)=O)cc2)cc1,9,–
NS(=O)(=O)c1ccc(-c2nnc3sc(-c4ccc(Cl)cc4)nn23)cc1,89,–
NS(=O)(=O)c1ccc(-c2nnc3n2N=C(c2ccc(F)cc2)CS3)cc1,25,–
NS(=O)(=O)c1ccc(-c2nnc3sc(-c4ccccc4)nn23)cc1,114,–
